In brackets after ≈: the same amount, converted by molar mass.
System: L1210
Test: Cytotoxicity against mouse L1210 cells
Assay type: functional
Details: read-out: ED50 (the source's name)

Compound: C=C(CCC=C(C)C)[C@H]1[C@H](O)C[C@]2(C)[C@@H]1CC[C@@H]1[C@@]3(C)CCC(=O)C(C)(C)[C@@H]3CC[C@]12C [ELABUNIN]
- EC50: 1 µg/mL (≈ 2.27 µM)

From ChEMBL document CHEMBL1158917, “Elabunin, a New Cytotoxic Triterpene from an East African Medicinal Plant, Elaeodendron buchananii” (1990)
